Test [1] has as its system scopolamine-induced memory impairment in mice. Briefly: Novel object recognition test. In kind it is in vivo.
The test system is the same in test [2]. As to the kind of experiment: Y-maze spontaneous alternation, scopolamine-induced amnesia. It counts as in vivo.
Test [3] deals with equine butyrylcholinesterase (Equus caballus, UniProt P81908). As to the kind of experiment: BuChE inhibition, Ellman's colorimetric method. The conditions noted are these: for inhibition at 31.25 µM / inhibition at 62.5 µM / inhibition at 125 µM / inhibition at 250 µM / inhibition at 500 µM / inhibition at 1000 µM: read-out: % BuChE inhibition mean ± SEM; for IC50: IC50 BuChE inhibition, in vitro. It counts as biochemical.

Test [4] has as its target electric eel acetylcholinesterase (type-VI-S) (Electrophorus electricus, UniProt O42275). Briefly: AChE inhibition, Ellman's colorimetric method. It counts as biochemical. The conditions noted are these: for IC50: IC50 AChE inhibition, in vitro; for inhibition at 31.25 µM: read-out: % AChE inhibition mean ± SEM, 31.25 μM, n = 3; for inhibition at 62.5 µM: read-out: % AChE inhibition mean ± SEM, 62.5 μM, n = 3; for inhibition at 125 µM: read-out: % AChE inhibition mean ± SEM, 125 μM, n = 3; for inhibition at 250 µM: read-out: % AChE inhibition mean ± SEM, 250 μM, n = 3; for inhibition at 500 µM: read-out: % AChE inhibition mean ± SEM, 500 μM, n = 3; for inhibition at 1000 µM: read-out: % AChE inhibition mean ± SEM, 1000 μM, n = 3.

A short description of test [5]: DPPH free radical scavenging assay. It counts as biochemical. Conditions: for % DPPH scavenging mean ± SEM: n = 3; for IC50: read-out: IC50 DPPH scavenging. A general note: Loss of DPPH colour is used to gauge radical scavenging.
Another test can be described thus: ABTS scavenging assay. It counts as biochemical. Conditions: for % ABTS scavenging mean ± SEM: n = 3; for IC50: read-out: IC50 ABTS scavenging.
The mark [6] stands for this setting: 30 mg/kg plus scopolamine 1 mg/kg.
The mark [7] stands for this setting: 1, 10 and 30 mg/kg plus scopolamine 1 mg/kg.
Setting [8] is: 10 and 30 mg/kg plus scopolamine 1 mg/kg.

“Also recorded” adds a separate entry of the source.

Sequence of equine butyrylcholinesterase (P81908 whole entry): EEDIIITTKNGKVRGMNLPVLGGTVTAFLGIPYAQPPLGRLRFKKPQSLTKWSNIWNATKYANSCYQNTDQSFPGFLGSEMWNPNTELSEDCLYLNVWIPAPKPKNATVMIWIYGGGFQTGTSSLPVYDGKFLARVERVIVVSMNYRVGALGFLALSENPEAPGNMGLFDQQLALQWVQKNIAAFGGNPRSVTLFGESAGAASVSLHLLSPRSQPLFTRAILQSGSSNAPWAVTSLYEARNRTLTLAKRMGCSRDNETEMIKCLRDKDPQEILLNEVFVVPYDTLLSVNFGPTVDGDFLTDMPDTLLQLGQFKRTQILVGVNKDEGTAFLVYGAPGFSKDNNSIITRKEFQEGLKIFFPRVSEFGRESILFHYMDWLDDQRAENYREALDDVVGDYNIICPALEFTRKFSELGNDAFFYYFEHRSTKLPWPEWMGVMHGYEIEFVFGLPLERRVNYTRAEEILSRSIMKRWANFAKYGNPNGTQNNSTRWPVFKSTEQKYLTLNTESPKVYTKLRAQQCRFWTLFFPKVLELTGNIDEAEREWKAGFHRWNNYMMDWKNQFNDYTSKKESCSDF
Sequence of electric eel acetylcholinesterase (type-VI-S) (O42275 24-633): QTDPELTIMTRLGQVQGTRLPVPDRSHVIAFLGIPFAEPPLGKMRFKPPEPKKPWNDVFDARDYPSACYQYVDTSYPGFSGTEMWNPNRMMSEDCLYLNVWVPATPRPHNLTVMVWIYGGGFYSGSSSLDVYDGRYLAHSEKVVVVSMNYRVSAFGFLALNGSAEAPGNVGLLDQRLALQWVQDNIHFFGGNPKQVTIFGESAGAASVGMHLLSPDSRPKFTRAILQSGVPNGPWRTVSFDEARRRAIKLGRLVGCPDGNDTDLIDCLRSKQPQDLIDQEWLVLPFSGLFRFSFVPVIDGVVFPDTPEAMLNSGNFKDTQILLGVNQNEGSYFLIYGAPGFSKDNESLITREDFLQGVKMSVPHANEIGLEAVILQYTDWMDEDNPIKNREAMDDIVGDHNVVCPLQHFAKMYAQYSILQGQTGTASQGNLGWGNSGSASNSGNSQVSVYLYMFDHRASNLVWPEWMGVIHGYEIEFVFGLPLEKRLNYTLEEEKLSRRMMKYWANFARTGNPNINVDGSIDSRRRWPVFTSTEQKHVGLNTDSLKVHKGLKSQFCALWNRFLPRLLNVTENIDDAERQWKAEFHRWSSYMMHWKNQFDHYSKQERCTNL

For `COc1cc2c(cc1OC)C(=O)C(CC1CCN(Cc3ccccc3)CC1)C2` (stereo not shown) [donepezil, reference compound], in test [1] (donepezil 2 mg/kg plus scopolamine 1 mg/kg), the “NORT short-term memory: exploration of novel vs familiar object in test phase” value is “statistically not significant”. For the same compound, the “Y-maze spontaneous alteration (% alteration)” value in test [2] (donepezil 2 mg/kg plus scopolamine, n = 8) amounted to 83.83 ± 2.64. Further, in test [3], the inhibition – broadly, the relative decrease from the control value, in per cent – at 31.25 µM was 69.31 ± 0.06%; the inhibition at 62.5 µM was 74.42 ± 0.06%; the inhibition at 125 µM is 78.39 ± 0.06%; the inhibition at 250 µM was determined as 82.49 ± 0.08%. For the same compound, in test [3], the inhibition at 500 µM stood at 86.42 ± 0.11% and the inhibition at 1000 µM is 91.29 ± 0.06%.
Regarding `O=C1c2ccccc2C(=O)N1c1ccc(C(F)(F)F)cc1` [compound 1, 2-(4-(trifluoromethyl)phenyl)isoindoline-1,3-dione], the “NORT long-term memory: % discrimination index” value in test [1] (setting [6]) and in test [1] (setting [8]) was “significantly higher” throughout. The “NORT short-term memory: exploration of novel vs familiar object in test phase” value in test [1] (setting [7]) was “statistically not significant”. Also, in test [1] (setting [8]), the “NORT short-term memory: % discrimination index vs scopolamine alone” value was “significantly greater; also recorded: significantly higher”. In addition, the IC50 (commonly the concentration that gives 50% inhibition) in test [4] was found to be 10 µM; in test [5] it was 105 µM; in test [3], 80 µM; in “ABTS scavenging assay”, 205 µM. For the same compound, the inhibition at 31.25 µM in test [4] turned out to be 55.68 ± 0.52%; in test [3] it was 41.39 ± 0.07%. In addition, the inhibition at 62.5 µM in test [4] was determined as 61.77 ± 0.49%; in test [3], 47.29 ± 0.12%. Further, the inhibition at 125 µM is 77.4 ± 0.9% in test [4] and 54.29 ± 0.19% in test [3]. In addition, the inhibition at 250 µM in test [4] amounted to 84.4 ± 1.39%; in test [3], 61.76 ± 0.49%. For the same compound, the inhibition at 500 µM in test [4] is 81.44 ± 0.29%; in test [3], 67.4 ± 0.89%. Further, the inhibition at 1000 µM in test [4] was determined as 98.51 ± 0.65%; in test [3] it was 75.4 ± 1.39%. Further, the “% DPPH scavenging mean ± SEM” value in test [5] (31.25 μM) amounted to 30.21 ± 0.17%; in test [5] (125 μM) it was 52.16 ± 0.15%; in test [5] (250 μM) it was 67.85 ± 0.18%; in test [5] (500 μM), 76.65 ± 0.30%; in test [5] (1000 μM) it was 85.87 ± 0.23%. For the same compound, the “Y-maze spontaneous alternation vs scopolamine group” value in test [2] (10 and 30 mg/kg plus scopolamine) is “significant increase”. In addition, the “% ABTS scavenging mean ± SEM” value in “ABTS scavenging assay” (31.25 μM) stood at 11.47 ± 0.54%; in “ABTS scavenging assay” (62.5 μM), 28.21 ± 0.32%; in the test “ABTS scavenging assay” (125 μM) it was 42.10 ± 1.11%; in the test “ABTS scavenging assay” (250 μM) it was 49.72 ± 0.72%; in the test “ABTS scavenging assay” (500 μM) it was 66.65 ± 0.61%; in the test “ABTS scavenging assay” (1000 μM), 70.55 ± 0.32%.
Regarding `O=C1O[C@H]([C@@H](O)CO)C(O)=C1O` [ascorbic acid, reference compound], the “% DPPH scavenging mean ± SEM” value was found to be 29.20 ± 1.03% in test [5] (31.25 μM); 47.65 ± 0.2a % in test [5] (62.5 μM); 52.56 ± 0.69% in test [5] (125 μM); 65.19 ± 0.29% in test [5] (250 μM); 74.44 ± 0.48% in test [5] (500 μM); 85.08 ± 0.32% in test [5] (1000 μM). Besides, the IC50 in test [5] came to 61 µM; in the test “ABTS scavenging assay” it was 125 µM. The “% ABTS scavenging mean ± SEM” value in the test “ABTS scavenging assay” (31.25 μM) is reported as 35.27 ± 0.67%; in “ABTS scavenging assay” (62.5 μM), 44.58 ± 1.11%; in the test “ABTS scavenging assay” (125 μM) it was 51.89 ± 0.59%; in “ABTS scavenging assay” (250 μM) it was 63.11 ± 1.22%; in “ABTS scavenging assay” (500 μM), 73.22 ± 0.21%; in “ABTS scavenging assay” (1000 μM), 82.14 ± 0.19%.
`Cc1ccc(N2C(=O)c3ccccc3C2=O)c(C)c1` [compound 3, 2-(2,4-dimethylphenyl)isoindoline-1,3-dione]: the “NORT short-term memory: % discrimination index vs scopolamine alone” value in test [1] (setting [6]) was “significantly higher”. Further, the “NORT long-term memory: % discrimination index” value in test [1] (setting [8]) is “significantly higher”. In addition, in test [4] (1000 μM, n = 3), the “% AChE inhibition mean ± SEM” value stood at 95.24 ± 0.12%. Moreover, the concentration for half-maximal inhibition (IC50) in test [4] came out at 18 µM; in test [5], 150 µM; in test [3], 11 µM; in the test “ABTS scavenging assay”, 220 µM. Also, the values for the inhibition at 31.25 µM in test [4] and in test [3] were 65.2 ± 0.75% and 59.49 ± 0.11%, respectively. In addition, the inhibition at 62.5 µM in test [4] turned out to be 52.5 ± 0.92%; in test [3] it was 63.41 ± 0.14%. Further, the inhibition at 125 µM in test [4] is 77.32 ± 0.21%; in test [3], 69.37 ± 0.02%. In addition, the results for the inhibition at 250 µM in test [4] and in test [3] were 84.18 ± 0.1% and 75.65 ± 0.03%, respectively. For the same compound, the values for the inhibition at 500 µM in test [4] and in test [3] were 91.47 ± 0.26% and 82.4 ± 0.06%, respectively. Also, the inhibition at 1000 µM in test [4] is 95.7 ± 0.12%; in test [3], 87.29 ± 0.03%. The “% DPPH scavenging mean ± SEM” value is given as 25.21 ± 0.15% in test [5] (31.25 μM); 40.16 ± 0.15% in test [5] (125 μM); 55.85 ± 0.18% in test [5] (250 μM); 77.65 ± 0.31% in test [5] (500 μM); 80.87 ± 0.25% in test [5] (1000 μM). Also, the “% ABTS scavenging mean ± SEM” value in the test “ABTS scavenging assay” (31.25 μM) was 18.47 ± 0.83%; in “ABTS scavenging assay” (62.5 μM) it was 35.22 ± 0.50%; in “ABTS scavenging assay” (125 μM), 46.11 ± 1.21%; in “ABTS scavenging assay” (250 μM) it was 54.72 ± 0.80%; in “ABTS scavenging assay” (500 μM) it was 68.76 ± 0.72%; in the test “ABTS scavenging assay” (1000 μM), 73.57 ± 0.41%.
In the case of `O=C1c2ccccc2C(=O)N1c1ccc(Br)cc1` [compound 2, 2-(4-bromophenyl)isoindoline-1,3-dione], the “NORT short-term memory: exploration of novel vs familiar object in test phase” value in test [1] (setting [7]) is reported as “did not exert a significant effect”. Moreover, the 50% inhibitory concentration (IC50) in test [4] was 140 µM; in test [5] it was 340 µM; in test [3], 50 µM; in the test “ABTS scavenging assay” it was 350 µM. In addition, the inhibition at 31.25 µM in test [4] is 38.36 ± 0.22%; in test [3], 45.45 ± 0.22%. The inhibition at 62.5 µM was found to be 41.35 ± 0.13% in test [4] and 51.34 ± 0.03% in test [3]. For the same compound, the inhibition at 125 µM in test [4] came to 47.14 ± 0.09%; in test [3], 56.28 ± 0.03%. Further, the inhibition at 250 µM is 54.33 ± 0.22% in test [4] and 64.36 ± 0.03% in test [3]. The inhibition at 500 µM amounted to 61.1 ± 1.95% in test [4] and 71.25 ± 0.12% in test [3]. Moreover, the inhibition at 1000 µM came out at 66.7 ± 5.14% in test [4] and 78.2 ± 0.07% in test [3]. In addition, the “% DPPH scavenging mean ± SEM” value in test [5] (31.25 μM) is recorded as 15.21 ± 0.19%; in test [5] (125 μM) it was 40.16 ± 0.14%; in test [5] (250 μM) it was 47.85 ± 0.17%; in test [5] (500 μM), 56.65 ± 0.30%; in test [5] (1000 μM), 69.87 ± 0.23%. The “% ABTS scavenging mean ± SEM” value in the test “ABTS scavenging assay” (31.25 μM) was found to be 10.47 ± 0.25%; in the test “ABTS scavenging assay” (62.5 μM), 22.12 ± 0.32%; in the test “ABTS scavenging assay” (125 μM), 34.11 ± 1.21%; in “ABTS scavenging assay” (250 μM), 41.72 ± 0.81%; in the test “ABTS scavenging assay” (500 μM) it was 57.76 ± 0.75%; in “ABTS scavenging assay” (1000 μM), 62.57 ± 0.50%.
